According to patent publication US11667602B2, “Compounds and their use” (AstraZeneca AB, priority 2020, dated 2023):

Molecular target: T1, human RXFP1 (Homo sapiens, UniProt Q9HBX9)
T1 sequence (Q9HBX9 1-757): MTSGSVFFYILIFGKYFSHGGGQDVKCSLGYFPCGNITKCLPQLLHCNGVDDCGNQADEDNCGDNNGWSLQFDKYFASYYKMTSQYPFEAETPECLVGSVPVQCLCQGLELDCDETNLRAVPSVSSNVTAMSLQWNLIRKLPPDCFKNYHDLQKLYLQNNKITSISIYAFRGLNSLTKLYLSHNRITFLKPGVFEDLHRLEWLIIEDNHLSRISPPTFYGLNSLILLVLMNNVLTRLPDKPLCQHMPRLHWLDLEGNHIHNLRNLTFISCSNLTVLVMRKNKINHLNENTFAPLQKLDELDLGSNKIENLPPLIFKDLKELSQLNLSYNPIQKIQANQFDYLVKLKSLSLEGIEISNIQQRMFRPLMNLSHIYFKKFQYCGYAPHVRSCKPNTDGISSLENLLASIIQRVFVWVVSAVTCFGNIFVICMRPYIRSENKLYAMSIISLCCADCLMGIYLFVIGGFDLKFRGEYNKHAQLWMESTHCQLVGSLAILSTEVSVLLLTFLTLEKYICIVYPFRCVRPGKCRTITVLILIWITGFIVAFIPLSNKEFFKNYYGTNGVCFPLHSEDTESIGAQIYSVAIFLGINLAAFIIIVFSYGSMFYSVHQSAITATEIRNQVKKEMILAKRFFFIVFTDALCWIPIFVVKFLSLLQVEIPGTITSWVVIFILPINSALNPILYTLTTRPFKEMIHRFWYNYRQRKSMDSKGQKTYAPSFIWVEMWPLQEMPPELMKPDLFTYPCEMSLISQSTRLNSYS
Test: RXFP1 Hu cAMP (Test A)
Assay type: cell-based
Set-up: expressed in transfected cells; host or cells: Jump-In T-REx CHO-K1 cells (ThermoFisher), induced with 10 ng/ml doxycycline for 24 h
Conditions: RXFP1 Hu cAMP; for EC50: read-out: Test A EC50
Procedure, shortened: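 Doxycycline-induced (10 ng/ml, 24 h) CHO-K1 cells stably expressing human RXFP1; cAMP read by competitive HTRF after 2 h at room temperature, with 0.5 mM IBMX final.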

COc1cc(F)c(O[C@H]2CC[C@@](CO)(C(=O)O)CC2)cc1C(=O)NC1COCC1C(=O)NCC(C)(C)C (single isomer, unassigned) [Example 578, (1R,4s)-4-(2-Fluoro-4-methoxy-5-(((3S*,4R*)-4-(neopentylcarbamoyl)tetrahydrofuran-3-yl)carbamoyl)phenoxy)-1-(hydroxymethyl)cyclohexane-1-carboxylic acid]
EC50: > 40 µM

COc1cc(F)c(O[C@H]2CC[C@@H](C(=O)O)CC2)cc1C(=O)N[C@@H]1[C@H](C(=O)Nc2ccc(F)c(C(F)(F)F)c2)[C@H]2C=C[C@@H]1C2 [Example 501, (1R,4s)-4-(2-Fluoro-5-(((1S,2S,3R,4R)-3-((4-fluoro-3-(trifluoromethyl)phenyl)carbamoyl)bicyclo[2.2.1]hept-5-en-2-yl)carbamoyl)-4-methoxyphenoxy)cyclohexane-1-carboxylic acid]
Test A Sinf: 82%

COc1cc(F)c(OCCCCCC(=O)O)cc1C(=O)N[C@H]1[C@@H](C(=O)Nc2cccc(S(=O)(=O)C(F)(F)F)c2)[C@@H]2C=C[C@H]1C2 (racemic) [Example 455]
Test A Sinf: 91% | EC50: 0.16 µM

COc1cc(C#N)c(O[C@H]2CC[C@@](C)(C(=O)O)CC2)cc1C(=O)N[C@H]1[C@@H](C(=O)NCC2(C)CCC2)[C@H]2CC[C@@H]1O2 (racemic) [Example 333]
Test A Sinf: 98%

COc1cc(F)c(-c2cncc(C(=O)O)c2)cc1C(=O)N[C@H]1[C@@H](C(=O)Nc2cccc(S(=O)(=O)C(F)(F)F)c2)[C@@H]2C=C[C@H]1C2 (racemic) [Example 228]
Test A Sinf: 110%

COc1cc(C#N)c(OCCCC(C)(C)C(=O)O)cc1C(=O)N[C@@H]1[C@H]2CC[C@H](C2)[C@@H]1C(=O)NCC1(C)CCC1 [Example 431]
Test A Sinf: 115% | EC50: 0.13 µM

COc1cc(F)c(-c2ccc(C(=O)O)cc2)cc1C(=O)N[C@H]1[C@@H]2CC[C@@H](C2)[C@H]1C(=O)N[C@H]1CCCN(S(=O)(=O)C(F)(F)F)C1 (single isomer, unassigned) [Example 313, 2′-Fluoro-4′-methoxy-5′-(((1R*,2S*,3R*,4S*)-3-(((S)-1-((trifluoromethyl)sulfonyl)piperidin-3-yl)carbamoyl)bicyclo[2.2.1]heptan-2-yl)carbamoyl)-[1,1′-biphenyl]-4-carboxylic acid]
EC50: > 40 µM

COc1cc(C#N)c(O[C@H]2CC[C@@](C)(C(=O)O)CC2)cc1C(=O)N[C@@H]1[C@H]2CC[C@H](C2)[C@@H]1C(=O)N[C@@H](C)C(C)(C)C [Example 119]
Test A Sinf: 99% | EC50: 0.56 µM

COc1cc(C#N)c(O[C@H]2CC[C@@](C)(C(=O)O)CC2)cc1C(=O)Nc1cc(C)ccc1C(=O)NCC1(F)CCC1 [Example 172]
Test A Sinf: 125% | EC50: 0.98 µM

(1R,4s)-4-(2-Fluoro-5-(((3S*,4S*)-4-((4-fluoro-3-(pentafluoro-λ6-sulfaneyl)phenyl)carbamoyl)tetrahydro-2H-pyran-3-yl)carbamoyl)-4-methoxyphenoxy)-1-methylcyclohexane-1-carboxylic acid [Example 575]
Test A Sinf: 101%

COc1cc(F)c(O[C@H]2CC[C@@](C)(C(=O)O)CC2)cc1C(=O)N[C@@H]1[C@@H]2CC[C@@H](C2)[C@@H]1C(=O)Nc1ccc(F)c(S(F)(F)(F)(F)F)c1 (racemic) [Example 371]
Test A Sinf: 125% | EC50: 0.0011 µM

COc1cc(F)c(O[C@H]2CC[C@@](C)(C(=O)O)CC2)cc1C(=O)N[C@@H]1COC[C@@H]1C(=O)Nc1cccc(S(=O)(=O)C(F)(F)F)c1 (racemic) [Example 342]
Test A Sinf: 132% | EC50: 0.55 µM

COc1cc(F)c(O[C@H]2CC[C@@](C)(C(=O)O)CC2)cc1C(=O)N[C@@H]1[C@H]2CC[C@H](C2)[C@@H]1C(=O)NC1CCCC1 [Example 599]
Test A Sinf: 91% | EC50: 0.26 µM

COc1cc(C#N)c(O[C@H]2CC[C@@](C)(C(=O)O)CC2)cc1C(=O)N[C@@H]1[C@H]2CC[C@H](C2)[C@@H]1C(=O)NCc1cccc(C)c1 [Example 115]
Test A Sinf: 94% | EC50: 0.22 µM

COc1ccc(Cc2ccccc2C(=O)O)cc1C(=O)N[C@H]1[C@@H](C(=O)Nc2cccc(S(=O)(=O)C(F)(F)F)c2)[C@@H]2C=C[C@H]1C2 (racemic) [Example 223, rac-2-(4-Methoxy-3-(((1R,2R,3S,4S)-3-((3-((trifluoromethyl)sulfonyl)phenyl)carbamoyl)bicyclo[2.2.1]hept-5-en-2-yl)carbamoyl)benzyl)benzoic acid]
EC50: > 40 µM

COc1cc(C#N)c(O[C@H]2CC[C@@](C)(C(=O)O)CC2)cc1C(=O)N[C@@H]1[C@H]2CC[C@H](C2)[C@@H]1C(=O)NCC(C)(C)OC [Example 129]
Test A Sinf: 107% | EC50: 0.24 µM

COc1cc(F)c(-c2cnc(C(=O)O)cn2)cc1C(=O)N[C@H]1[C@@H](C(=O)Nc2cccc(S(=O)(=O)C(F)(F)F)c2)[C@@H]2C=C[C@H]1C2 (racemic) [Example 276]
Test A Sinf: 95% | EC50: 3.3 µM

COc1cc(F)c(O[C@H]2CC[C@@](C)(C(=O)O)CC2)cc1C(=O)N[C@H]1[C@@H](C(=O)NCC2(C)CCC2)[C@H]2CC[C@@H]1O2 (racemic) [Example 331, (1R,4s)-4-(2-Fluoro-4-methoxy-5-(((1SR,2SR,3RS,4RS)-3-(((1-methylcyclobutyl)methyl)carbamoyl)-7-oxabicyclo[2.2.1]heptan-2-yl)carbamoyl)phenoxy)-1-methylcyclohexane-1-carboxylic acid]
Test A Sinf: 90% | EC50: 0.26 µM

COCC1(CNC(=O)[C@H]2[C@@H]3CC[C@@H](C3)[C@H]2NC(=O)c2cc(O[C@H]3CC[C@@](C)(C(=O)O)CC3)c(F)cc2OC)CCC1 [Example 594]
Test A Sinf: 96% | EC50: 0.53 µM

(1R,4s)-4-(2-fluoro-5-(((1S*,2S*,3R*,4R*)-3-((4-fluoro-3-(pentafluoro-λ6-sulfaneyl)phenyl)carbamoyl)bicyclo[2.2.1]heptan-2-yl)carbamoyl)-4-methoxyphenoxy)-1-methylcyclohexane-1-carboxylic acid [Example 521]
Test A Sinf: 99%

CCc1cc(OC)c(C(=O)N[C@@H]2[C@H]3CC[C@H](C3)[C@@H]2C(=O)NC23CC(F)(C2)C3)cc1O[C@H]1CC[C@@](C)(C(=O)O)CC1 [Example 383]
Test A Sinf: 89% | EC50: 0.12 µM

COc1cc(F)c(O[C@H]2CC[C@@](C)(C(=O)O)CC2)cc1C(=O)NC1CCN(C(C)=O)CC1C(=O)Nc1cccc(S(=O)(=O)C(F)(F)F)c1 (single isomer, unassigned) [Example 514, (1R,4s)-4-(5-(((3R*,4S*)-1-Acetyl-3-((3-((trifluoromethyl)sulfonyl)phenyl)carbamoyl)piperidin-4-yl)carbamoyl)-2-fluoro-4-methoxyphenoxy)-1-methylcyclohexane-1-carboxylic acid]
Test A Sinf: 107% | EC50: 15 µM

(1R,4s)-4-(2-Fluoro-5-(((3S*,4R*)-4-((4-fluoro-3-(pentafluoro-λ6-sulfaneyl)phenyl)carbamoyl)tetrahydrofuran-3-yl)carbamoyl)-4-methoxyphenoxy)-1-methylcyclohexane-1-carboxylic acid [Example 565]
Test A Sinf: 113%

COc1cc(F)c(O[C@H]2CC[C@@](CO)(C(=O)O)CC2)cc1C(=O)NC1CC(OC)CC1C(=O)NCC(C)(C)C (single isomer, unassigned) [Example 548, (1R,4s)-4-(2-Fluoro-4-methoxy-5-(((1S*,2R*,4R*)-4-methoxy-2-(neopentylcarbamoyl)cyclopentyl)carbamoyl)phenoxy)-1-(hydroxymethyl)cyclohexane-1-carboxylic acid]
Test A Sinf: 117% | EC50: 21 µM

COc1cc(C#N)c(O[C@H]2CC[C@@](C)(C(=O)O)CC2)cc1C(=O)N[C@@H]1[C@H]2CC[C@H](C2)[C@@H]1C(=O)N[C@H]1CCCC[C@H]1CC(F)(F)F [Example 134]
Test A Sinf: 104% | EC50: 0.044 µM

COc1cc(F)c(O[C@H]2CC[C@@](C)(C(=O)O)CC2)cc1C(=O)N[C@@H]1CC[C@@H]1C(=O)NCC(C)(C)C (racemic) [Example 346]
Test A Sinf: 96%
